Assay results published in patent US11148991B2, “5-bromo-2-(alpha-hydroxypentyl)benzoic acid sodium salts in different crystal forms, and preparation method thereof” (priority 2013, dated 2021).

Test system: rat MCAO model
Test: Brain infarction volume and brain edema volume in rats with local brain ischemia (MCAO model)
Format: in vivo, Wistar rats
Settings: sodium salt
Text: Wistar rats (50% of rats is female and another 50% of rats is male); 5-bromo-2-(α-hydroxypentyl)benzoic acid sodium salt (BZP, in the form of amorphous form, crystal form A and crystal form B, prepared according to the present invention), prepared in double distilled water; […] is in the form of white powder, manufactured by Beijing Chemical Works.
Administration method: 5-bromo-2-(α-hydroxypentyl)benzoic acid sodium salt (BZP) was intravenously injected at one hour before MCAO, with the dosage of 12 mg/kg; 5-bromo-2-(α-hydroxypentyl)benzoic acid sodium salt (BZP) was used to intragastric administration at one hour before MCAO, with the dosage of 20 mg/kg. 2-(α-hydroxypentyl)benzoic acid potassium salt (NBP-K) was used as positive control, and its dosage (calculated in moles) is the same as that of 5-bromo-2-(α-hydroxypentyl)benzoic acid sodium salt, that is, the dosage of intravenous injection is 9.6 mg/kg, and the dosage of intragastric administration is 15.9 mg/kg.
Preparation of MCAO model: Establish a focal brain ischemia-reperfusion injury model by cerebral artery obstruction in rats with suture-occluded method. Rats were intraperitoneally injected with 10% chloral hydrate to anesthetize. Rats were fixed on back and the skin of neck center was incised. The left common carotid artery, external carotid artery, and internal carotid artery were subjected to blunt dissection. The pterygopalatine artery was ligated, only remaining cranial trunk of internal carotid artery; a prepared nylon rope (burning diameter 0.3 mm) was inserted via external carotid artery incision into the bifurcation of the […], and was pushed along the cranial direction of the internal carotid artery. […] This indicates one side of the middle cerebral artery occlusion model was completed. Sutured the incision, remained the end of nylon line out of the skin. For reperfusion, the nylon line was gently pulled out. If feel force of resistance, this indicates the end of nylon line has returned to the trunk of external carotid artery, thereby accomplishing reperfusion.
Determination of infarction volume: After being subjected to ischemia for 2 hours and reperfusion for 24 hours, the heads of rats were cut off. Forebrain was removed and cut into six pieces, each piece being 2 mm. The pieces were stained with TC, and incubated at 37° C. for 30 minutes. Normal issues were stained to be red, but the infarcted issues were stained to be white. Took photos with digital camera, and calculated the percentage of the infarcted area relative to the spherical area of brain by Photoshop.

[1] = intragastric administration one hour before MCAO, BZP 20 mg/kg, NBP-K 15.9 mg/kg
[2] = intravenous injection one hour before MCAO, 12 mg/kg, 12 mg/kg

## CCCCC(O)c1ccc(Br)cc1C(=O)[O-].[Na+] (stereo not drawn) [BZP (amorphous form), 5-bromo-2-(α-hydroxypentyl)benzoic acid sodium salt]
[1]
  Edema (%): 2.24 ± 1.66^aa** %
  Infarction volume (%): 5.59 ± 2.35 aa %
  Inhibition of edema (%): 88.36%
  Inhibition of infarction volume (%): 89.05%
[2]
  Edema (%): 2.56 ± 1.63 aa %
  Inhibition of edema (%): 88.58%
Intravenous injection one hour before MCAO, BZP 12 mg/kg, NBP-K 9.6 mg/kg, ischemia 2 hours, reperfusion 24 hours
  Infarction volume (%): 3.46 ± 2.94 aa %
Intravenous injection one hour before MCAO, BZP 12 mg/kg, NBP-K 9.6 mg/kg
  Inhibition of infarction volume (%): 93.52%
